In general, MIC refers to the least concentration at which growth counts as inhibited.

≈ marks a conversion by molar mass, not a printed value. Read-outs that look alike come from different tables or passages of the source.

The test system of one assay is Propionibacterium acnes. The assay is described as follows: Agar dilution MIC, anaerobic bacteria (Wilkins-Chalgren agar). The class given is cell-based. Here is the method:
(§1) The lowest concentration at which growth was no longer to be observed was designated as the MIC.
In vitro activity of 1-hydroxy-4-methyl-6-cyclohexyl-2(1H)pyridone against anaerobic bacteria (the testing was carried out in an agar dilution test using Wilkins-Chalgren agar (Oxoid).

The test system of another assay is Klebsiella pneumoniae. The assay is described as follows: Agar dilution MIC, aerobic bacteria (Mueller-Hinton agar). The class given is cell-based. Particulars: 2 strains, number in brackets = strains with that MIC, 24 hours at 37° C. On the procedure: (§2) Determination of the antibacterial activity of 1-hydroxy-4-methyl-6-cyclohexyl-2(1H)pyridone to skin-pathogenic gram-positive and gram-negative aerobic bacteria.
(§3) The minimal inhibitory concentration (MIC) was determined in an agar dilution test in Mueller-Hinton agar. The active compound was first dissolved in dimethyl sulfoxide at 10% strength and then diluted to twice the amount in each case in equal stages with agar so that in the end effect concentrations between 128 μg/ml and 1 μg/ml were obtained. Overnight cultures of the bacterial strains to be tested were diluted with liquid medium and employed as inoculum. The bacterial suspensions (1×10^5 cfu/ml) were applied to the surface of the active compound-containing agar plates. With the exception of the methicillin-resistant strains of Staphylococcus aureus (MRSA) and Staphylococcus epidermidis (MRSE), the MIC values were read off after 24 hours at 37° C.(MRSA and MRSE: 48 hours at 30° C.).
as §1
(§4) Using known methods, the antibiotic-resistant bacteria investigated can be isolated from patients or from hospitals in which antibiotic resistance has been found. The other bacterial species mentioned can be isolated easily by a person skilled in the art on account of their species and generic name or ordered from a strain collection.
On the technique in general: In agar dilution the substance is mixed into plates at graded concentrations.

The test system of a further assay is Escherichia coli. Described as above. The class given is cell-based. Particulars: 3 strains, 24 hours at 37° C. On the procedure: as §2, §3, §1, §4
The next assay relates to Enterobacter cloacae. Described as above. Type of assay: cell-based. The settings on record: 1 strain, 24 hours at 37° C. On the procedure:
as §2, §3, §1, §4

Assay [1] concerns S. aureus, methicillin-resistant MRSA. The assay is described as above. The settings on record: Staphylococcus aureus, 19 strains, read after 48 hours at 30° C. The class given is cell-based. Here is the method:
as §2, §3, §1, §4

The subject of the next assay is Enterobacter aerogenes. The description is as above. Particulars: Klebsiella aerogenes; 1 strain; 24 hours at 37° C. Type of assay: cell-based. Here is the method:
as §2, §3, §1, §4

The subject of another assay is Strept. durans. The description is as above. The class given is cell-based. Particulars: Enterococcus durans, 24 h, 10 strains; number in brackets = strains with that MIC; 24 hours at 37° C. Here is the method:
as §2, §3, §1, §4

In a further assay the test system is Strept. agalactiae. The assay is described as above. The settings on record: Streptococcus agalactiae; 9 strains; 24 hours at 37° C. The class given is cell-based. Here is the method: as §2, §3, §1, §4
A further assay concerns Pseudomonas aeruginosa. The description is as above. Type of assay: cell-based. Particulars: 5 strains, 24 hours at 37° C. Here is the method: as §2, §3, §1, §4
The next assay has as its system Proteus vulgaris. The assay is described as above. The class given is cell-based. The settings on record: 3 strains, number in brackets = strains with that MIC, 24 hours at 37° C. On the procedure:
as §2, §3, §1, §4

Assay [2] concerns S. epidermidis, ofloxacin-resistant, OFX^r. Described as above. Type of assay: cell-based. Particulars: Staphylococcus epidermidis; 4 strains; 24 hours at 37° C. On the procedure:
as §2, §3, §1, §4

The subject of another assay is Staphylococcus aureus. The assay is described as above. Type of assay: cell-based. Particulars: 20 strains, read after 24 hours at 37° C. On the procedure:
as §2, §3, §1, §4

The next assay has as its system Strept. equisimilis. The assay is described as above. Type of assay: cell-based. Particulars: Streptococcus dysgalactiae; 1 strain; 24 hours at 37° C. On the procedure: as §2, §3, §1, §4
The subject of another assay is Strept. faecalis. The assay is described as above. The settings on record: 3 strains, number in brackets = strains with that MIC, 24 hours at 37° C. Type of assay: cell-based. Here is the method:
as §2, §3, §1, §4

In assay [3] the test system is S. epidermidis, methicillin-resistant, MRSE. The assay is described as above. The class given is cell-based. The settings on record: Staphylococcus epidermidis, 2 strains, 48 hours at 30° C. On the procedure:
as §2, §3, §1, §4

The test system of assay [4] is Staphylococcus epidermidis. The assay is described as above. Type of assay: cell-based. The settings on record: 20 strains, 24 hours at 37° C. On the procedure:
as §2, §3, §1, §4

Assay [5] relates to Strept. faecium, vancomycin-resistant, VAN^r. The assay is described as above. Type of assay: cell-based. The settings on record: Enterococcus faecium; 1 strain; 24 hours at 37° C. On the procedure:
as §2, §3, §1, §4

The test system of the next assay is Strept. faecium. The description is as above. Particulars: Enterococcus faecium; 1 strain; 24 hours at 37° C. Type of assay: cell-based. Here is the method:
as §2, §3, §1, §4

In the next assay the test system is Streptococcus pyogenes. Described as above. Type of assay: cell-based. The settings on record: 20 strains, 24 hours at 37° C. On the procedure: as §2, §3, §1, §4
Assay [6] deals with S. aureus, ofloxacin-resistant, OFX^r. The description is as above. Type of assay: cell-based, Staphylococcus aureus. The settings on record: 16 strains, number in brackets = strains with that MIC, 24 hours at 37° C. Here is the method:
as §2, §3, §1, §4

Assay [7] deals with Staphylococcus epidermidis. The settings on record: acne patients pretreated with antibiotics; cited from earlier work.
A further assay deals with Propionibacteria. The settings on record: acne patients pretreated with antibiotics; cited from earlier work.
The subject of another assay is enterococci. The settings on record: isolates from various centers; cited from earlier work.

Take `Cc1cc(C2CCCCC2)n(O)c(=O)c1` [1-hydroxy-4-methyl-6-cyclohexyl-2(1H)pyridone]: the MIC in the assay with Propionibacterium acnes (Cutibacterium acnes, DSM20458, Strain DSM 20458, read-out: MIC) amounted to 32 µg/mL (≈ 154 µM); in the assay with Propionibacterium acnes (Cutibacterium acnes, Strain 6919, read-out: MIC), 32 µg/mL (≈ 154 µM); in the assay on Propionibacterium acnes (Strain 6922), 32.0 µg/mL (≈ 154 µM); against Propionibacterium acnes (Strain 15549), 32.0 µg/mL (≈ 154 µM); with Klebsiella pneumoniae, 128 µg/mL (≈ 618 µM); with Klebsiella pneumoniae (Klebsiella pneumoniae, 24 h, read-out: MIC), 64 µg/mL (≈ 309 µM). The MIC in the assay with Escherichia coli came out at 64 µg/mL (≈ 309 µM); in the assay on Enterobacter cloacae, 128 µg/mL (≈ 618 µM); in assay [1] it was 64 µg/mL (≈ 309 µM); against Enterobacter aerogenes, 128 µg/mL (≈ 618 µM); against Strept. durans, 64 µg/mL (≈ 309 µM); against Strept. agalactiae, 128 µg/mL (≈ 618 µM). Moreover, the MIC in the assay on Pseudomonas aeruginosa worked out at 128 µg/mL (≈ 618 µM); in the assay on Proteus vulgaris, 64 µg/mL (≈ 309 µM); in the assay with Proteus vulgaris (Proteus vulgaris, 24 h, read-out: MIC), 32 µg/mL (≈ 154 µM); in assay [2] it was 64 µg/mL (≈ 309 µM); against Staphylococcus aureus, 64 µg/mL (≈ 309 µM); against Strept. equisimilis it was 128 µg/mL (≈ 618 µM). In addition, the MIC against Strept. faecalis was 128 µg/mL (≈ 618 µM); with Strept. faecalis (Enterococcus faecalis, 24 h, read-out: MIC), 64 µg/mL (≈ 309 µM); in assay [3] it was 64 µg/mL (≈ 309 µM); in [4] it was 128 µg/mL (≈ 618 µM); in assay [5] it was 32 µg/mL (≈ 154 µM); in the assay on Strept. faecium, 128 µg/mL (≈ 618 µM). Moreover, the MIC against Streptococcus pyogenes came to 64 µg/mL (≈ 309 µM); in assay [6] it was 128 µg/mL (≈ 618 µM); in [6] (Staphylococcus aureus, 24 h, read-out: MIC) it was 64 µg/mL (≈ 309 µM).

Turning to `CC[C@H]1OC(=O)[C@H](C)[C@@H](O[C@H]2C[C@@](C)(OC)[C@@H](O)[C@H](C)O2)[C@H](C)[C@@H](O[C@@H]2O[C@H](C)C[C@H](N(C)C)[C@H]2O)[C@](C)(O)C[C@@H](C)C(=O)[C@H](C)[C@@H](O)[C@]1(C)O` [erythromycin], the “resistances found, share of the cases” value is 90% in assay [7] and 36% in the assay with Propionibacteria.

As for gentamycin, the “resistances, share of isolates” value in the assay on enterococci is given as “up to 50%”.

The values are drawn from patent US6469033B1, “Use of 1-hydroxy-2-pyridones for the treatment of skin diseases” (Aventis Pharma Deutschland GmbH, priority 1996, dated 2002).
